The values below come from US9518038B2, “Condensation product of theanine derivative and carboxylic acid coumarin derivative, its intermediate, preparation method and use thereof” (SHANDONG YINGDONG YINGHAO BIOTECHNOLOGY, INC., priority 2012, dated 2016).

In experiment [1] the test system is human liver cancer cells SMMC7721. Nature of the experiment: MTT growth inhibition, SMMC7721 cells. Format: cell-based. The following applies: SMMC-7721, S-7721 (SMMC7721), 72 h after treatment, read-out: Drug concentration (IC50) at which 50% cancer cells survived.
For experiment [2], the system named is highly metastatic Lewis lung cancer cell lines. Nature of the experiment: MTT growth inhibition, LLC cells. Format: cell-based, mouse. The following applies: Mus musculus, Lewis lung carcinoma, 72 h after treatment, read-out: Drug concentration (IC50) at which 50% cancer cells survived.
For experiment [3], the system named is Caski human cervical cancer cells. As to the kind of experiment: MTT growth inhibition, Caski cells. Format: cell-based. As to conditions: Ca-Ski, 72 h after treatment, read-out: Drug concentration (IC50) at which 50% cancer cells survived.
The test system of another experiment is human neuroma cells D54. Nature of the experiment: MTT growth inhibition, D54 cells. Type of experiment: cell-based. As to conditions: Homo sapiens, 72 h after treatment, read-out: Drug concentration (IC50) at which 50% cancer cells survived.
Experiment [4] concerns human oral epidermoid cancer cells KBV200. Nature of the experiment: MTT growth inhibition, KBV200 cells. Format: cell-based. The following applies: 72 h after treatment, read-out: Drug concentration (IC50) at which 50% cancer cells survived.
Experiment [5] deals with human breast cancer cells MDA-MB231 xenograft. As to the kind of experiment: In-vivo growth of MDA-MB231 xenografts in nude mice. Set-up: species or system BALB/c nude mice. As to conditions: Mus musculus, MDA-MB-231, ip, MB-231 xenograft, vs DMSO solvent control, read-out: Curative effect (inhibition rate %) of tumor weight; for inhibition in vivo at 60 mg/kg: 60 mg/kg intraperitoneal once a day; for inhibition in vivo at 90 mg/kg: 90 mg/kg intraperitoneal once a day. On the procedure:
RPMI1640 and DMEM culture solutions: Hyclone Company; inactivated fetal bovine serum: Hyclone Company, preserved at −20° C.; trypsin: Amersco Company; and 0.4% trypan blue: Sigma Company;
(3) Observation of growth of tumors in nude mice: the activities (including food intake, traits of urine and stool, mental state and the like) of the nude mice and the tumor growth time and growth situation of the transplanted tumors were observed every day, the body weight and the size of the tumors were measured once every 2-3 days. The long diameter a and the short diameter b (mm) of each tumor were measured by a vernier caliper to calculate the volume, wherein the volume V=π1/2·ab^2 (mm^3);
(4) sacrifice of animals: the mice were anesthetized and photoed after treatment experiments; the nude mice were sacrificed by breaking neck, the tumor tissues were stripped under sterile conditions and the weight of the tumors was weighed; and the effects of the drugs on pathology and toxicity of the various organs and tissues were detected.

A further experiment addresses T1, EZH2 (Homo sapiens, UniProt Q15910).
T1 construct: the EZH2 enzyme was replaced with tumor protein extracts in each group; from tissue; host or cells: human tumour xenografts excised from treated nude mice
Nature of the experiment: EZH2 enzyme activity in protein extracts of human tumor xenografts of treated mice (EZH2 Assay Kit). Type of experiment: in vivo. As to conditions: tumors excised 6 h after medication, SAHA 25 mg/kg. (In general: Xenograft models place foreign cells or tissue in a host animal.)

In the next experiment the test system is Akt. Nature of the experiment: Western Blotting, Akt level. Format: cell-based. The following applies: human liver cancer cells, Lewis lung cancer cells and other cancer cell lines and tumor tissues, read-out: Effective concentration (IC50) for inhibition of Akt. From the text:
(§1) Antibodies: primary antibodies of VEGFR, EGFR, c-Met, K-Ras, H-Ras, Akt, NF-κB, Cyclin D1, ER-alpha, Dvl-1, Dvl-2, Dvl-3, MMP-9, MMP2, β-catenin, Bcl-2, Bax, p53, p21, E-cadherin and Caspase3 protein, purchased from American Cell Signaling Technology Company and Santa Cruz Technology Company; and H3 acetylation, H4 acetylation and HDAC (HDAC3, HDAC4 and the like) Antibody Sample Kits, purchased from Cell Signaling Technology Company of the U.S.
(§2) (3) polyacrylamide gel electrophoresis (SDS-PAGE): an equal amount of protein lysate sample was used to separate protein, film transfer, and blocking, treated with appropriate primary antibodies and secondary antibodies in sequence, and the film was washed, then the color was developed with ECL kit, and a blot protein band was detected by exposure of an X-ray film; and a Gel-Pro Analyzer was used for quantitative analysis of gray degree, optical density value of the control group and the drug treatment group in various concentration were respectively compared with that of internal reference, the obtained ratios were respectively compared with the control group, and the protein expression level was semi-quantified.
(In general: A western blot detects proteins with antibodies after separation by electrophoresis.)

The subject of another experiment is HDAC3. As to the kind of experiment: Western Blotting, HDAC3 level. Type of experiment: cell-based. As to conditions: human liver cancer cells, Lewis lung cancer cells and other cancer cell lines and tumor tissues, read-out: Effective concentration (IC50) for inhibition of HDAC3.
Excerpt: as §1, §2

The test system of a further experiment is p53. Nature of the experiment: Western Blotting, increase of p53 level. Type of experiment: cell-based. The following applies: liver cancer cells, Lewis lung cancer cells and other cancer cell lines and tumor tissue protein lysates, 48 h treatment, read-out: Effective concentration to increase p53 by 50%.
Excerpt: as §1, §2

Molecules are shown by their SMILES. A value given as a limit tells only on which side of the number the result lay.

T1 sequence (Q15910 whole entry): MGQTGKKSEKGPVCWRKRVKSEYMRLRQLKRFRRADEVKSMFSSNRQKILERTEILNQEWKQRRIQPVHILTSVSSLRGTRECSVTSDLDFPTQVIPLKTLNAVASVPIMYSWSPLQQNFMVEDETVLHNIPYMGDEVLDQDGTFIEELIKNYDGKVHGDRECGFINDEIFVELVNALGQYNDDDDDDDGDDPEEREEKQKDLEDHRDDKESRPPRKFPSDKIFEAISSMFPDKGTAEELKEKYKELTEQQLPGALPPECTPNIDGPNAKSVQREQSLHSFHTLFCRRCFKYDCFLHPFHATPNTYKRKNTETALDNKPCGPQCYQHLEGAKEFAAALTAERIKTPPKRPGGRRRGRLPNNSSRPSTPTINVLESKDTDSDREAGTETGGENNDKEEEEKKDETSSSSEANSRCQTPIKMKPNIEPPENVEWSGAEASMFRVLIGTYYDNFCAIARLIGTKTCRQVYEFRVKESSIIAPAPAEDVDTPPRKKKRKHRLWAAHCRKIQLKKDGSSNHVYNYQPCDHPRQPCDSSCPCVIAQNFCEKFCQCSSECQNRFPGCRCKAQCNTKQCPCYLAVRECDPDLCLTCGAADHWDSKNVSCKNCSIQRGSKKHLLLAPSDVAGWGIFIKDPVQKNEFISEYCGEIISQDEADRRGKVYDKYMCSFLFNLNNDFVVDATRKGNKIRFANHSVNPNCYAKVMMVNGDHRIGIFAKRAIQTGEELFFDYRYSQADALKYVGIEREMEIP
T1 sequence (O75530 whole entry partner): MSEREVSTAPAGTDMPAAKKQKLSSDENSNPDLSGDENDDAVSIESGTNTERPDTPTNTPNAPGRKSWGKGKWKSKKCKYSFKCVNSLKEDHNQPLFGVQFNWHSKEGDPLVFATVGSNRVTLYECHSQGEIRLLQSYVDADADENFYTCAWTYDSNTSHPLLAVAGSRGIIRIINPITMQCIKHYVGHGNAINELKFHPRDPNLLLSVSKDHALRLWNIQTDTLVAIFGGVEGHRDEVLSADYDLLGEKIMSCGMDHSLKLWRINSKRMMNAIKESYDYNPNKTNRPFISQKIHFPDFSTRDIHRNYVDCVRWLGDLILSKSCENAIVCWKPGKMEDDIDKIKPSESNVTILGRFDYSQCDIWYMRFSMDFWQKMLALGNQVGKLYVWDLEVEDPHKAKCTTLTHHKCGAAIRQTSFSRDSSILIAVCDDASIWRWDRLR
T1 sequence (Q15022 whole entry partner): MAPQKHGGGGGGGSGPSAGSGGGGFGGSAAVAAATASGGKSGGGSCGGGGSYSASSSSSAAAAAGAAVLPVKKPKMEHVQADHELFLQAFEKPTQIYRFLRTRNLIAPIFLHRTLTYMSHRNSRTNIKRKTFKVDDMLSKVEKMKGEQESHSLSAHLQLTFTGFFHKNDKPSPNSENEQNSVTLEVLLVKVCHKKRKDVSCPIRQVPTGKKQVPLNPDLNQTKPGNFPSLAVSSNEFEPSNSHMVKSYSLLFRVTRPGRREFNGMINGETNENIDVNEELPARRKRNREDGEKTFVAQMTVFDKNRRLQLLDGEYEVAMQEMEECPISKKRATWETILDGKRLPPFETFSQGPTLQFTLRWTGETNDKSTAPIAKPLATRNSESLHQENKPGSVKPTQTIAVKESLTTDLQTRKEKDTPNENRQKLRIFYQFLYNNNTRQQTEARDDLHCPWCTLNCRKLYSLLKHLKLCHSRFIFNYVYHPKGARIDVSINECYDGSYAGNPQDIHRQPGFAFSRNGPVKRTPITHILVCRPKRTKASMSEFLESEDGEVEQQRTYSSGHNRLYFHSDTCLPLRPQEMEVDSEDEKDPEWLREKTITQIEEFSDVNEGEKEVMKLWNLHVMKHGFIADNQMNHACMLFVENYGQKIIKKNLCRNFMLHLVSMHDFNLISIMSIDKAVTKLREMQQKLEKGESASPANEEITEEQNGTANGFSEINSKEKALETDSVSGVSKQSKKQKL

As to `CCNC(=O)CCC(NC(=O)c1cc2cc(F)ccc2oc1=O)C(=O)OCC` (stereo in doubt) [Compound Ie, (R)-2-(6-F-2-oxo-2H-benzopyran-3-carboxamido)-5-ethylamino-5-oxo-pentanoic acid ethyl ester], the IC50 in [1] was 61 µM; in experiment [2] it was 110 µM; in experiment [3], 230 µM; in the experiment with human neuroma cells D54, 150 µM; in experiment [4], 210 µM; in the experiment on Akt, < 160 µM. For the same compound, in the experiment on HDAC3, the IC50 is < 55 µM. In addition, in experiment [5], the inhibition in vivo at 60 mg/kg was determined as 50.9%. Moreover, the inhibition in vivo at 90 mg/kg in [5] worked out at 60.9%. In addition, the “decrease of EZH2 enzyme activity/inhibition rate” value on EZH2 (A549 tumor grown in vivo) is given as 58%*(A549)-; on EZH2 (MCF7 tumor grown in vivo), 62%*(MCF7); on EZH2 (MDA-MB231 tumor grown in vivo), 59%*(MDA-MB231); on EZH2 (SMMC7721 tumor grown in vivo) it was 56%*(SMMC7721);. Moreover, the EC50 with p53 was < 100 µM.

For the compound `CCNC(=O)CCC(NC(=O)c1cc2cc([N+](=O)[O-])ccc2oc1=O)C(=O)OCC` (stereo in doubt) [Compound If, (R)-2-(6-nitro-2-oxo-2H-benzopyran-3-carboxamido)-5-ethylamino-5-oxo-pentanoic acid ethyl ester], the IC50 in experiment [1] is 61 µM; in [2], 100 µM; in experiment [3] it was 120 µM; in the experiment with human neuroma cells D54 it was 105 µM; in [4] it was 102 µM; with Akt, < 90 µM. Besides, in the experiment on HDAC3, the IC50 was < 55 µM. Also, in experiment [5], the inhibition in vivo at 60 mg/kg came to 52.6%. Further, the inhibition in vivo at 90 mg/kg in [5] was 62.3%. Also, the “decrease of EZH2 enzyme activity/inhibition rate” value is given as 65%*(A549)- at EZH2 (A549 tumor grown in vivo), 66%*(MCF7) on EZH2 (MCF7 tumor grown in vivo), 63%*(MDA-MB231) at EZH2 (MDA-MB231 tumor grown in vivo) and 64%*(SMMC7721); on EZH2 (SMMC7721 tumor grown in vivo). In the experiment with p53, the EC50 is < 65 µM.

In the case of `CCNC(=O)CC[C@H](N)C(=O)OC` [Compound IIa, theanine methyl ester], the IC50 in [1] came to 230 µM; in [2] it was 100 µM; in experiment [3], 320 µM; in the experiment on human neuroma cells D54, 400 µM; in experiment [4], 380 µM. Moreover, in experiment [5], the inhibition in vivo at 60 mg/kg is 31.1%. Moreover, the inhibition in vivo at 90 mg/kg in [5] is 36.1%.

Consider `CCNC(=O)CC[C@H](N)C(=O)OCC` [Compound IIb, theanine ethyl ester], for which the IC50 in experiment [1] amounted to 400 µM; in [2] it was 300 µM; in experiment [3], 300 µM; with human neuroma cells D54, 300 µM; in [4], 300 µM. Besides, the inhibition in vivo at 60 mg/kg in experiment [5] was found to be 44.5%. The inhibition in vivo at 90 mg/kg in [5] came out at 47.8%.

On to `CCNC(=O)CCC(NC(=O)c1cc2ccccc2oc1=O)C(=O)OC` (centres unmarked) [Compound Ia, methyl 5-ethylamino-5-oxo-2-(2-oxo-2H-benzopyran-3-carboxamido)pentanoate], for which the IC50 in experiment [1] was 75 ± 30 µM; in experiment [2], 185 µM; in experiment [3], 210 µM; with human neuroma cells D54 it was 160 µM; in experiment [4] it was 240 µM; in the experiment on Akt, < 125 µM. Also, the IC50 in the experiment with HDAC3 is < 75 µM. The inhibition in vivo at 60 mg/kg in experiment [5] amounted to 50.1%. The inhibition in vivo at 90 mg/kg in [5] stood at 60.1%. Besides, the “decrease of EZH2 enzyme activity/inhibition rate” value at EZH2 (SMMC7721 tumor grown in vivo) was 54%*(SMMC-7721). For the same compound, the EC50 in the experiment with p53 is < 125 µM.

In the case of `CCNC(=O)CCC(NC(=O)c1cc2ccccc2oc1=O)C(=O)OCC` (centres unmarked) [Compound Ib, ethyl 5-ethylamino-5-oxo-2-(2-oxo-2H-benzopyran-3-carboxamido)pentanoate], the IC50 in experiment [1] is 17 µM; in experiment [2], 115 µM; in experiment [3], 116 µM; with human neuroma cells D54 it was 165 µM; in [4] it was 136 µM; in the experiment with Akt, < 120 µM. The IC50 with HDAC3 is < 70 µM. For the same compound, the inhibition in vivo at 60 mg/kg in experiment [5] was determined as 59.1%. The inhibition in vivo at 90 mg/kg in experiment [5] is 69.1%. Further, the figures for the “decrease of EZH2 enzyme activity/inhibition rate” value at EZH2 (A549 tumor grown in vivo) and at EZH2 (SMMC7721 tumor grown in vivo) were 54%*(A549)- and 57%*(SMMC-7721), respectively. For the same compound, in the experiment with p53, the EC50 was < 120 µM.
